Results from paper PMC10224444, “Novel Perspectives on the Design and Development of a Long-Acting Subcutaneous Raltegravir Injection for Treatment of HIV—In Vitro and In Vivo Evaluation” (Pharmaceutics, 2023).
Several values for one entry are separate records, joined by “and”; a condition that tells them apart may be missing. Equal entries are not always repeated.

How the values were obtained:
[1] = parameters: method as in PMID 33979164; conditions: pH 7.0, within 1 h; cited from earlier work
[2] = parameters: method as in PMID 33979164; conditions: cited from earlier work
[3] = parameters: method as in PMID 33979164; conditions: cited from earlier work; remark: listed apart in the source
[4] = In vitro release test in 50% PBS (pH 7.4, 34 °C), HPLC; type: physicochemical; conditions: for half-life: 50% PBS pH 7.4, 25 µM CTG probes, 100 µM prodrug 25, calculated as 0.69/kobs, read-out: t½ (half-life of payload release) (converted)
Experimental: (§1) Probes 14–15 and 20–21 stock solutions were prepared at 1000 µM (1 mM) in a 1:1 mixture of MeCN/water, followed by serial dilution with deionised water to give a 50 µM working concentration. Each experiment was run in triplicate after dilution of 0.5 mL of the stock solution with 0.5 mL of PBS (pH 7.4) or Tris buffer (pH 7.4), giving a final assay concentration of 25 µM for the probes. The samples were incubated at 34 °C to mimic the conditions found in SC tissue. Every day, a 2 µL aliquot of each sample was subjected to HPLC analysis using an Agilent 1260 Infinity instrument, with conditions as follows. Column: Agilent ZORBAX Eclipse Plus C18 Rapid Resolution, 3.5 μm (4.6 × 100 mm), pore size (95 Å); column temperature (35 °C). The mobile phases were solvent A: 0.1% TFA in ultrapure H2O and solvent B: 0.1% TFA in MeCN. The injection volume was 2 μL and the flow rate was kept at 1.0 mL/min. The analysis was performed using a gradient elution of 5–100% of solvent B in solvent A over 9 min, then maintained for a further 1 min at two wavelengths: 254 nm and 214 nm. The retention times of CTG and probes 14–15 and 20–21 were 4.13, 4.27, 4.93, 5.55, and 5.71 min, respectively. A calibration curve for the free CTG fluorophore was constructed over the concentration range of 10–100 µM at pH 7.4. The data were fit by linear regression to the equation y = 14.615x − 0.067, where y is the peak area of the analyte and x is the analyte concentration (µM). The correlation coefficient (R2) was computed as 0.999, confirming the linearity of used method under the specified measured concentrations.
Likewise, a test solution of prodrug 25 was incubated in 50% PBS at 100 µM final concentration, and analysed using the same HPLC method but with detection at 254 nm only. A higher concentration of 25 was used due to its relatively weaker absorption at 254 nm, compared with CTG. The retention times of RAL and prodrug 25 were 4.47 and 5.55 min, respectively. A calibration curve of RAL was constructed over the range 50–1000 µM. The data were fit by linear regression as before to give the equation y = 5.1961x − 20.064, with a similar goodness of fit (R^2 ≥ 0.999).
(§2) In vitro Release assays for probes 14–15 and 20–21 were conducted using pH and temperature conditions similar to those of SC tissue (pH 7.4 and 34 °C). Test compounds were dissolved in either MeCN/PBS (1:1, pH 7.4) or MeCN/Tris buffer (1:1, pH 7.4) at 25 µM, then incubated at 34 °C. Aliquots were taken daily and analysed by HPLC and LC-MS until complete fluorophore release was achieved. HPLC was preferred over fluorometric-based assay to study the stability of the synthesised probes because of the bleaching effect that may occur to the fluorophore over the long analysing periods. Photobleaching is the inability of the fluorophore to fluoresce due to the fluorophore instability upon repeated exposure to light over long periods. It can be a particular problem for fluorescence-based assays, thereby rationalising the choice of HPLC in the current work.
Similarly to the assays above, prodrug 25 (100 µM) was incubated in 50% PBS at 34 °C, and aliquots analysed daily by HPLC and LC-MS until full RAL release was achieved.

[5] = In vitro release test in 50% Tris buffer (pH 7.4, 34 °C), HPLC; type: physicochemical; conditions: 25 µM probe
Experimental: as §1, §2

[6] = Pharmacokinetic study after single SC injection in BALB/c mice; type: in vivo; conditions: mouse, plasma level of the dosed compound, single SC 30 mg/kg, male BALB/c mice, n = 3
Experimental: The pharmacokinetic profile of prodrug 25 was evaluated in mice, in a study undertaken at WuXi AppTec. Prodrug 25 was dissolved in a sterile vehicle of DMSO/Solutol HS15/water (10:10:80) to give a clear solution with a final concentration of 6 mg/mL. The same procedure was used to prepare a 6 mg/mL solution of RAL as a control. Six male BALB/c mice were used, each weighing 18–25 g and aged between 7–9 weeks (three per group). A single 30 mg/kg dose of prodrug 25 was administered to each animal in the treatment group (subcutaneously, in the thoracic region). Similarly, RAL (30 mg/kg) was administered to each animal in the control group. Blood samples were taken at the time points indicated below, up to the experiment endpoint (96 h).
For each animal, blood samples (30 μL each) were collected from the submandibular or saphenous vein over a period of 96 h, at the following time points: zero/pre-dose; then 0.25, 0.5, 1, 2, 3, 4, 5, 6, 24, 48, and 96 h. All samples were transferred into pre-chilled commercial K2EDTA tubes and placed on wet ice until processing for plasma, which was obtained by centrifugation at 4 °C and 3200× g for 10 min, within 30 min of sampling. The plasma samples were transferred to polypropylene tubes, snap-frozen on dry ice, and kept at −70 ± 10 °C until LC-MS/MS analysis.
An LC-MS/MS method was developed to measure the concentrations of prodrug 25 and RAL in the biological matrix. Two mobile phases were used: mobile phase A (0.025% NH4OH and 2 mM NH4OAc in 95:5 v/v water/MeCN) and mobile phase B (0.025% NH4OH and 2 mM NH4OAc in 5:95 v/v water/MeCN). A UPLC method was performed using an LC-MS/MS-BM Triple Quad 6500 plus system with an ACQUITY UPLC BEH C18 1.7 μm column (2.1 × 50 mm) at a flow rate of 0.65 mL/min. The assay time was 2.5 min, and the solvent B composition was as follows: 10–100% (0.2–1.4 min), 30% (1.41–1.7 min), 95% (2.0–2.4 min), and 10% (2.41–2.5 min). The retention times for the prodrug, RAL and the internal standards (tolbutamide and verapamil) were 0.76, 1.04, 0.66, and 0.97 min, respectively. Quantification was performed by monitoring the transition of m/z 835.3 [M+H]^+ to 457.2 for prodrug 25, representing the cyclisation of the linker with the amidic RAL such as in side-product 22; whereas for RAL, the transition m/z 445.2 [M+H]^+ to 361.2 was followed, representing the loss of the 2-methyl-1,3,4-oxadiazole moiety as the main fragmentation pathway. For the internal standards, the m/z transition from 455.2 [M+H]^+ to 164.9 was used for verapamil (corresponding to formation of the verapamil fragment [CH2CH2-(3,4-dimethoxy phenyl)]^+), and for tolbutamide, the transition of m/z of 271.1 [M+H]^+ to 155.1 was used, representing formation of the [CH3-Ph-SO2]^+ fragment. […] The method was linear over the measured standard concentrations for 25 and RAL. The mean plasma concentration was determined for 25 and RAL (as metabolite or control) at each sampling time point. Pharmacokinetic parameters were then calculated by non-compartmental analysis of plasma concentration/time profiles using the Phoenix WinNonlin 6.3 software. The computed parameters were as follows: peak plasma concentration (Cmax); the time over which the initial concentration is reduced to half (t½); area under the plasma concentration versus time curve from time zero to 96 h (AUC 0–96 h); and mean residence time from time zero to 96 h (MRT 0–96 h).
Since in vitro models are not fully predictive of in vivo pharmacokinetics, especially for prodrugs, assessment of these characteristics still relies on in vivo studies. Therefore, the pharmacokinetic profile of prodrug 25 was evaluated in mice. Compound 25 and the control (RAL) were dissolved in DMSO/Solutol HS15/water (10:10:80). For a single SC injection of 25 (30 mg/kg) in BALB/c mice (n = 3), the plasma concentrations of prodrug and released RAL were measured at the following time points: zero/pre-dose; then 0.25, 0.5, 1, 2, 3, 4, 5, 6, 24, 48, and 96 h. […]

[7] = 50% PBS, pH 7.4, 34 °C, 25 µM probe, 1 d
[8] = 50% PBS, pH 7.4, 34 °C, 25 µM probe

half-life ([4]; 50% PBS buffer) | SMILES | CTG fluorophore released after 1 d [4, 7] | CTG fluorophore released after 2 d [4, 8] | CTG release after 1 d in 50% Tris buffer [5] | half-life [4] | time to maximal release of payload ([4]; 50% PBS, pH 7.4, 34 °C) | other results
 | CNCCOC(=O)OCOc1c(-c2ccc(Oc3ccc(OC(F)(F)F)cc3)cc2F)c(C)nc2cc(OC)c(Cl)cc12 [Compound 1] |  |  |  |  |  | parent compound released within 1 h [1]: > 90%; aqueous solubility compared with the parent compound [2]: enhanced; oral bioavailability compared with the parent compound [3]: enhanced
40.6 h | C#CCCCNCCCCCOC(=O)OCOc1ccc2c(-c3ccc(C(=O)O)cc3C)c3ccc(=O)cc-3oc2c1.Cl [Compound 14, N-(5-(((((9-(4-Carboxy-2-methylphenyl)-3-oxo-3H-xanthen-6-yl)oxy)methoxy)carbonyl)oxy)pentyl)pent-4-yn-1-aminium chloride] | 36% | 58% | 89.2% |  |  | CTG fluorophore released after 9 d ([4]; 50% PBS, pH 7.4, 34 °C, 25 µM probe, 9 d): 98%
 | C#CCCCNCCCCCCOC(=O)OCOc1ccc2c(-c3ccc(C(=O)O)cc3C)c3ccc(=O)cc-3oc2c1.Cl [Compound 15, 6-(((((9-(4-Carboxy-2-methylphenyl)-3-oxo-3H-xanthen-6-yl)oxy)methoxy)carbonyl)oxy)-N-(pent-4-yn-1-yl)hexan-1-aminium chloride] | 29% | 50% | 86.2% | 47.5 h |  | CTG fluorophore released after 10 d ([4]; 50% PBS, pH 7.4, 34 °C, 25 µM probe, 10 d): 98%
 | Cc1cc(C(=O)O)ccc1-c1c2ccc(=O)cc-2oc2cc(OCOC(=O)OCCCCCNCCCc3cn(CCP(=O)(O)O)nn3)ccc12.Cl [Compound 20, 5-(((((9-(4-Carboxy-2-Methylphenyl)-3-Oxo-3H-Xanthen-6-yl)Oxy)Methoxy)Carbonyl)Oxy)-N-(3-(1-(2-Phosphonoethyl)-1H-1,2,3-triazol-4-yl)Propyl)Pentan-1-Aminium Chloride] | 25% | 41% | 82.5% | 69.1 h |  | CTG fluorophore released after 13 d ([4]; 50% PBS, pH 7.4, 34 °C, 25 µM probe, 13 d): 98%
 | Cc1cc(C(=O)OC(C)(C)C)ccc1-c1c2ccc(=O)cc-2oc2cc(OCOC(=O)OCCCCCCNCCCc3cn(CCP(=O)(O)O)nn3)ccc12.Cl [Compound 21, 6-(((((9-(4-(Tert-Butoxycarbonyl)-2-Methylphenyl)-3-Oxo-3H-Xanthen-6-yl)Oxy)Methoxy)Carbonyl)Oxy)-N-(3-(1-(2-Phosphonoethyl)-1H-1,2,3-Triazol-4-yl)Propyl)Hexan-1-Aminium Chloride] | 20% | 33% | 80.9% | 75.6 h | 15 days | CTG fluorophore released after 15 d ([4]; 50% PBS, pH 7.4, 34 °C, 25 µM probe, 15 d): 98%
463 h | Cc1nnc(C(=O)NC(C)(C)c2nc(C(=O)NCc3ccc(F)cc3)c(OCOC(=O)OCCCCCCNCCCc3cn(CCP(=O)(O)O)nn3)c(=O)n2C)o1 [Compound 25, 6-(((((4-((4-Fluorobenzyl)Carbamoyl)-1-Methyl-2-(2-(5-Methyl-1,3,4-Oxadiazole-2-Carboxa-Mido)Propan-2-Yl)-6-Oxo-1,6-Dihydropyrimidin-5yl)Oxy)Methoxy)Carbonyl)Oxy)-N-(3-(1-(2-Phosphonoethyl)-1H-1,2,3-Triazol-4-Yl)Propyl)Hexan-1-Aminium Chloride] |  |  |  |  | 45 days | release kinetics (order) ([4]; 50% PBS, pH 7.4): first-order kinetics; RAL released after 1 d ([4]; 50% PBS, pH 7.4, 34 °C, 100 µM prodrug, 1 d): 8.4%; RAL released after 10 d ([4]; 50% PBS, pH 7.4, 34 °C, 100 µM prodrug, 10 d): 31.5%; RAL released after 45 d (plateau) ([4]; 50% PBS, pH 7.4, 34 °C, 100 µM prodrug, 45 d): 82% and 82.1%; degree of side-product (27) formation ([4]; 50% PBS, pH 7.4, 34 °C, hydrolysis of RAL oxadiazole, accounts for unreleased RAL): 15.2%; Cmax [6]: 4550 ng/mL; Tmax [6]: 0.25 h; AUC(0-t) ([6]; read-out: AUC 0–96 h): 3270 ng·h/mL; half-life ([6]; read-out: t½ (converted)): 0.85 h
